Target: T1, fatty acyl CoA: cholesterol acyl transferase (ACAT) (Rattus norvegicus, UniProt O70536)
T1 construct: The supernatant, containing the microsomal fraction, served as the source of the cholesterol-esterifying enzyme; from tissue; host or cells: rat adrenals, supernatant of 1,000 x g centrifugation containing the microsomal fraction
T1 sequence (O70536 1-545): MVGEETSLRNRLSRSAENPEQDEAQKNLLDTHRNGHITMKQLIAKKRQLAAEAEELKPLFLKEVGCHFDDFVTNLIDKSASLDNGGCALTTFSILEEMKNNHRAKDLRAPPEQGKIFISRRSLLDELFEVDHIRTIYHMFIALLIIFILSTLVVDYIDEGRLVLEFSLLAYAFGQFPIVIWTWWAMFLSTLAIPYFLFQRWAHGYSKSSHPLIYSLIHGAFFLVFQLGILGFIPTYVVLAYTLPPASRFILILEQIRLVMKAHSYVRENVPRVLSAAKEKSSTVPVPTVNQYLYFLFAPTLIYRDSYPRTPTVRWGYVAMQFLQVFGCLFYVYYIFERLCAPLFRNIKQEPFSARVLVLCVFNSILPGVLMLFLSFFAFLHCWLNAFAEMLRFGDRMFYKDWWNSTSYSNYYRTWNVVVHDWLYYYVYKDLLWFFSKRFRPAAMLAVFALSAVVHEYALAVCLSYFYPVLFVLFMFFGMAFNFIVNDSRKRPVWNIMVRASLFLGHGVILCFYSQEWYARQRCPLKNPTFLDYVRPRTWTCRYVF
Assay: Inhibition of fatty acyl CoA:cholesterol acyl transferase (ACAT), rat adrenal enzyme
Type: biochemical
Conditions: not given
In short: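 Enzyme source was the microsomal supernatant of rat adrenal homogenate (0.2M potassium phosphate, pH 7.4) with BSA, preincubated with compound (5.2 μg/ml final for single-point) for 10 min at 37° C. Then [14C]oleoyl CoA added, 10 min at 37° C. TLC-separated cholesteryl ester was counted; percent inhibition versus control, IC50 from several concentrations.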

Q: With CCCCc1ccc(CN(CCCCCCC#N)C(=O)Nc2ccc(Cl)cc2C)cc1 [1-[(4-Butylphenyl)methyl]-3-(4-chloro-2-methylphenyl)-1-(6-cyanohexyl)urea] as the compound, how does the inhibition at 5.2 µg/mL read?
A: Its inhibition at 5.2 µg/mL is 90%.

Q: With CCCCc1ccc(CN(CCCCC(C)(C)C)C(=O)Nc2ccc(F)cc2F)cc1 [1-(5,5-Dimethylhexyl)-1-[4-(n-butyl)benzyl]-3-(2,4-difluorophenyl)urea] as the compound, how does the inhibition at 5.2 µg/mL read?
A: Its inhibition at 5.2 µg/mL is 90%.

Q: CC(C)(C)CCN(Cc1ccc(Cl)cc1)C(=O)Nc1c(Cl)cc(Cl)cc1Cl [1-(3,3-Dimethylbutyl)-1-(4-chlorobenzyl)-3-(2,4,6-trichlorophenyl)urea] was tested. Which inhibition at 5.2 µg/mL did it give?
A: The inhibition at 5.2 µg/mL was 90%.

Q: Which inhibition at 5.2 µg/mL does the source give for Cc1cc(Cl)cc(C)c1NC(=O)N(CCC(C)(C)C)Cc1ccc(Cl)cc1 [1-(3,3-Dimethylbutyl)-1-(4-chlorobenzyl)-3-(4-chloro-2,6-dimethylphenyl)urea] here?
A: Its inhibition at 5.2 µg/mL is 90%.

Q: With CCCCc1ccc(CN(CCCCC[Si](C)(C)C)C(=O)Nc2ccc(Cl)cc2C)cc1 [1-[(4-Butylphenyl)methyl]-3-(4-chloro-2-methylphenyl)-1-[5-(trimethylsilyl)pentyl]urea] as the compound, how does the inhibition at 5.2 µg/mL read?
A: The inhibition at 5.2 µg/mL was 90%.

Q: With CCCCc1ccc(CN(CCC(C)(C)C)C(=O)Nc2c(Cl)cc(Cl)cc2Cl)cc1 [1-(3,3-Dimethylbutyl)-1-[4-(n-butyl)benzyl]-3-(2,4,6-trichlorophenyl)urea] as the compound, how does the inhibition at 5.2 µg/mL read?
A: Its inhibition at 5.2 µg/mL is 90%.

Q: CCCCCCCN(Cc1ccc(OCCCC)cc1)C(=O)Nc1c(Cl)cc(Cl)cc1Cl [1-(n-Heptyl)-1-(4-n-butoxybenzyl)-3-(2,4,6-trichlorophenyl)urea] was tested. Which inhibition at 5.2 µg/mL did it give?
A: The inhibition at 5.2 µg/mL was 90%.

Q: How did the inhibition at 5.2 µg/mL turn out when CCCCc1ccc(CN(CCCCCCO)C(=O)Nc2cc(C)c(C)cc2C)cc1 [1-[(4-Butylphenyl)methyl]-1-(6-hydroxyhexyl)-3-(2,4,5-trimethylphenyl)urea] was run?
A: The inhibition at 5.2 µg/mL was 90%.

Q: How did the inhibition at 5.2 µg/mL turn out when CCCCc1ccc(CN(CCCCCCC#N)C(=O)Nc2cc(C)c(C)cc2C)cc1 [1-[(4-Butylphenyl)methyl]-1-(6-cyanohexyl)-3-(2,4,5-trimethylphenyl)urea] was run?
A: Its inhibition at 5.2 µg/mL is 90%.

Q: With CCCCc1ccc(CN(CCCCCCO)C(=O)Nc2ccc(Cl)cc2C)cc1 [1-[(4-Butylphenyl)methyl]-3-(4-chloro-2-methylphenyl)-1-(6-hydroxyhexyl)urea] as the compound, how does the inhibition at 5.2 µg/mL read?
A: Its inhibition at 5.2 µg/mL is 90%.

Q: With Cc1cc(Cl)ccc1NC(=O)N(CCC(C)(C)C)Cc1ccccc1 [1-(3,3-Dimethylbutyl)-1-benzyl-3-(4-chloro-2-methylphenyl)urea] as the compound, how does the inhibition at 5.2 µg/mL read?
A: The inhibition at 5.2 µg/mL was 90%.

Q: Which inhibition at 5.2 µg/mL does the source give for Cc1cc(Cl)ccc1NC(=O)N(CCC(C)(C)C)Cc1ccc(Cl)cc1 [1-(3,3-Dimethylbutyl)-1-(4-chlorobenzyl)-3-(4-chloro-2-methylphenyl)urea] here?
A: The inhibition at 5.2 µg/mL was 90%.

Q: How did the inhibition at 5.2 µg/mL turn out when CCCCOc1ccc(CN(Cc2cccs2)C(=O)Nc2cc(C)c(C)cc2C)cc1 [1-[(4-Butoxyphenyl)methyl]-1-(2-thienylmethyl)-3-(2,4,5-trimethylphenyl)urea] was run?
A: The inhibition at 5.2 µg/mL was 90%.

Tested on: cholesterol absorption
Assay: Inhibition of cholesterol absorption in rats fed 1% cholesterol:0.5% cholic acid diet
Type: in vivo, male Sprague-Dawley rats
Conditions: po, 336 h; rat; dose .03% of the diet, 2 weeks; read-out: LS (liver sterol), percentage of control values
In short: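 Male Sprague-Dawley rats (150-170 g) fed 1% cholesterol:0.5% cholic acid diet for 2 weeks with compound at 0.001, 0.003, 0.01 or 0.03% of diet. Serum cholesterol measured enzymatically; liver cholesterol from saponified large-lobe sample after petroleum ether extraction. Liver and serum sterol expressed as percent of untreated controls.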

Q: For CCCCc1ccc(CN(CCCCCCC#N)C(=O)Nc2ccc(Cl)cc2C)cc1 [1-[(4-Butylphenyl)methyl]-3-(4-chloro-2-methylphenyl)-1-(6-cyanohexyl)urea], which response vs control in vivo at 0.03 % is on record?
A: The response vs control in vivo at 0.03 % was 50%.

Q: How did the response vs control in vivo at 0.03 % turn out when CCCCc1ccc(CN(CCCCC(C)(C)C)C(=O)Nc2ccc(F)cc2F)cc1 [1-(5,5-Dimethylhexyl)-1-[4-(n-butyl)benzyl]-3-(2,4-difluorophenyl)urea] was run?
A: The response vs control in vivo at 0.03 % was 58%.

Q: How did the response vs control in vivo at 0.03 % turn out when CC(C)(C)CCN(Cc1ccc(Cl)cc1)C(=O)Nc1c(Cl)cc(Cl)cc1Cl [1-(3,3-Dimethylbutyl)-1-(4-chlorobenzyl)-3-(2,4,6-trichlorophenyl)urea] was run?
A: Its response vs control in vivo at 0.03 % is 41%.

Q: How did the response vs control in vivo at 0.03 % turn out when Cc1cc(Cl)cc(C)c1NC(=O)N(CCC(C)(C)C)Cc1ccc(Cl)cc1 [1-(3,3-Dimethylbutyl)-1-(4-chlorobenzyl)-3-(4-chloro-2,6-dimethylphenyl)urea] was run?
A: Its response vs control in vivo at 0.03 % is 25%.

Q: Which response vs control in vivo at 0.03 % does the source give for CCCCc1ccc(CN(CCCCC[Si](C)(C)C)C(=O)Nc2ccc(Cl)cc2C)cc1 [1-[(4-Butylphenyl)methyl]-3-(4-chloro-2-methylphenyl)-1-[5-(trimethylsilyl)pentyl]urea] here?
A: Its response vs control in vivo at 0.03 % is 62%.

Q: Which response vs control in vivo at 0.03 % does the source give for CCCCc1ccc(CN(CCC(C)(C)C)C(=O)Nc2c(Cl)cc(Cl)cc2Cl)cc1 [1-(3,3-Dimethylbutyl)-1-[4-(n-butyl)benzyl]-3-(2,4,6-trichlorophenyl)urea] here?
A: The response vs control in vivo at 0.03 % was 13%.

Q: CCCCCCCN(Cc1ccc(OCCCC)cc1)C(=O)Nc1c(Cl)cc(Cl)cc1Cl [1-(n-Heptyl)-1-(4-n-butoxybenzyl)-3-(2,4,6-trichlorophenyl)urea] was tested. Which response vs control in vivo at 0.03 % did it give?
A: Its response vs control in vivo at 0.03 % is 11%.

Q: How did the response vs control in vivo at 0.03 % turn out when CCCCc1ccc(CN(CCCCCCO)C(=O)Nc2cc(C)c(C)cc2C)cc1 [1-[(4-Butylphenyl)methyl]-1-(6-hydroxyhexyl)-3-(2,4,5-trimethylphenyl)urea] was run?
A: Its response vs control in vivo at 0.03 % is 39%.

Q: For CCCCc1ccc(CN(CCCCCCC#N)C(=O)Nc2cc(C)c(C)cc2C)cc1 [1-[(4-Butylphenyl)methyl]-1-(6-cyanohexyl)-3-(2,4,5-trimethylphenyl)urea], which response vs control in vivo at 0.03 % is on record?
A: The response vs control in vivo at 0.03 % was 28%.

Q: How did the response vs control in vivo at 0.03 % turn out when CCCCc1ccc(CN(CCCCCCO)C(=O)Nc2ccc(Cl)cc2C)cc1 [1-[(4-Butylphenyl)methyl]-3-(4-chloro-2-methylphenyl)-1-(6-hydroxyhexyl)urea] was run?
A: The response vs control in vivo at 0.03 % was 53%.

Q: Which response vs control in vivo at 0.03 % does the source give for Cc1cc(Cl)ccc1NC(=O)N(CCC(C)(C)C)Cc1ccccc1 [1-(3,3-Dimethylbutyl)-1-benzyl-3-(4-chloro-2-methylphenyl)urea] here?
A: The response vs control in vivo at 0.03 % was 51%.

Q: Which response vs control in vivo at 0.03 % does the source give for Cc1cc(Cl)ccc1NC(=O)N(CCC(C)(C)C)Cc1ccc(Cl)cc1 [1-(3,3-Dimethylbutyl)-1-(4-chlorobenzyl)-3-(4-chloro-2-methylphenyl)urea] here?
A: Its response vs control in vivo at 0.03 % is 60%.

Q: For CCCCOc1ccc(CN(Cc2cccs2)C(=O)Nc2cc(C)c(C)cc2C)cc1 [1-[(4-Butoxyphenyl)methyl]-1-(2-thienylmethyl)-3-(2,4,5-trimethylphenyl)urea], which response vs control in vivo at 0.03 % is on record?
A: Its response vs control in vivo at 0.03 % is 16%.

Same assay, conditions: po, 336 h; rat; dose .03% of the diet, 2 weeks; read-out: SS (serum sterol), percentage of control values

Q: For CCCCc1ccc(CN(CCCCCCC#N)C(=O)Nc2ccc(Cl)cc2C)cc1 [1-[(4-Butylphenyl)methyl]-3-(4-chloro-2-methylphenyl)-1-(6-cyanohexyl)urea], which response vs control in vivo at 0.03 % is on record?
A: Its response vs control in vivo at 0.03 % is 48%.

Q: Which response vs control in vivo at 0.03 % does the source give for CCCCc1ccc(CN(CCCCC(C)(C)C)C(=O)Nc2ccc(F)cc2F)cc1 [1-(5,5-Dimethylhexyl)-1-[4-(n-butyl)benzyl]-3-(2,4-difluorophenyl)urea] here?
A: The response vs control in vivo at 0.03 % was 59%.

Q: CC(C)(C)CCN(Cc1ccc(Cl)cc1)C(=O)Nc1c(Cl)cc(Cl)cc1Cl [1-(3,3-Dimethylbutyl)-1-(4-chlorobenzyl)-3-(2,4,6-trichlorophenyl)urea] was tested. Which response vs control in vivo at 0.03 % did it give?
A: The response vs control in vivo at 0.03 % was 73%.

Q: For Cc1cc(Cl)cc(C)c1NC(=O)N(CCC(C)(C)C)Cc1ccc(Cl)cc1 [1-(3,3-Dimethylbutyl)-1-(4-chlorobenzyl)-3-(4-chloro-2,6-dimethylphenyl)urea], which response vs control in vivo at 0.03 % is on record?
A: The response vs control in vivo at 0.03 % was 46%.

Q: CCCCc1ccc(CN(CCCCC[Si](C)(C)C)C(=O)Nc2ccc(Cl)cc2C)cc1 [1-[(4-Butylphenyl)methyl]-3-(4-chloro-2-methylphenyl)-1-[5-(trimethylsilyl)pentyl]urea] was tested. Which response vs control in vivo at 0.03 % did it give?
A: The response vs control in vivo at 0.03 % was 50%.

Q: Which response vs control in vivo at 0.03 % does the source give for CCCCc1ccc(CN(CCC(C)(C)C)C(=O)Nc2c(Cl)cc(Cl)cc2Cl)cc1 [1-(3,3-Dimethylbutyl)-1-[4-(n-butyl)benzyl]-3-(2,4,6-trichlorophenyl)urea] here?
A: The response vs control in vivo at 0.03 % was 37%.

Q: CCCCCCCN(Cc1ccc(OCCCC)cc1)C(=O)Nc1c(Cl)cc(Cl)cc1Cl [1-(n-Heptyl)-1-(4-n-butoxybenzyl)-3-(2,4,6-trichlorophenyl)urea] was tested. Which response vs control in vivo at 0.03 % did it give?
A: The response vs control in vivo at 0.03 % was 35%.

Q: CCCCc1ccc(CN(CCCCCCO)C(=O)Nc2cc(C)c(C)cc2C)cc1 [1-[(4-Butylphenyl)methyl]-1-(6-hydroxyhexyl)-3-(2,4,5-trimethylphenyl)urea] was tested. Which response vs control in vivo at 0.03 % did it give?
A: The response vs control in vivo at 0.03 % was 57%.

Q: Which response vs control in vivo at 0.03 % does the source give for CCCCc1ccc(CN(CCCCCCC#N)C(=O)Nc2cc(C)c(C)cc2C)cc1 [1-[(4-Butylphenyl)methyl]-1-(6-cyanohexyl)-3-(2,4,5-trimethylphenyl)urea] here?
A: Its response vs control in vivo at 0.03 % is 48%.

Q: For CCCCc1ccc(CN(CCCCCCO)C(=O)Nc2ccc(Cl)cc2C)cc1 [1-[(4-Butylphenyl)methyl]-3-(4-chloro-2-methylphenyl)-1-(6-hydroxyhexyl)urea], which response vs control in vivo at 0.03 % is on record?
A: Its response vs control in vivo at 0.03 % is 6%.

Q: Which response vs control in vivo at 0.03 % does the source give for Cc1cc(Cl)ccc1NC(=O)N(CCC(C)(C)C)Cc1ccccc1 [1-(3,3-Dimethylbutyl)-1-benzyl-3-(4-chloro-2-methylphenyl)urea] here?
A: Its response vs control in vivo at 0.03 % is 64%.

Q: Cc1cc(Cl)ccc1NC(=O)N(CCC(C)(C)C)Cc1ccc(Cl)cc1 [1-(3,3-Dimethylbutyl)-1-(4-chlorobenzyl)-3-(4-chloro-2-methylphenyl)urea] was tested. Which response vs control in vivo at 0.03 % did it give?
A: Its response vs control in vivo at 0.03 % is 50%.

Q: Which response vs control in vivo at 0.03 % does the source give for CCCCOc1ccc(CN(Cc2cccs2)C(=O)Nc2cc(C)c(C)cc2C)cc1 [1-[(4-Butoxyphenyl)methyl]-1-(2-thienylmethyl)-3-(2,4,5-trimethylphenyl)urea] here?
A: Its response vs control in vivo at 0.03 % is 41%.

Source: US4623662A, “Antiatherosclerotic ureas and thioureas” (American Cyanamid Company, priority 1985, dated 1986)
